Reference: patent publication US9676760B2, “Fused heterocyclic compounds as ion channel modulators” (Gilead Sciences, Inc., priority 2011, dated 2017)
Like-named read-outs stand apart in the source and are kept apart here.

Assays:
Type in all cases: cell-based
[1] = target: T1, hNav 1.1 sodium channel isoform (Homo sapiens, UniProt P35498); test: hNav1.1 whole-cell voltage-clamp assay; conditions: for inhibition at 1 µM: use-dependent block, 10 Hz, read-out: NAV1.1* UDB-10HZ
T1 construct: expressed in transfected cells; host or cells: HEK293, transient transfection (Qiagen Superfect)

hERG potassium channel = hERG potassium channel (Homo sapiens, UniProt Q12809); test: hERG screening assay (PatchXpress, CHO cells); parameters: hERG: unit not given here
Protocol: Compounds were also tested for their effect to block the hERG K^+ channel.
Compounds were screened to test their activity in blocking the hERG potassium channel at AVIVA Biosciences (San Deigo, Calif., USA). The hERG channel is heterologously expressed in a CHO (Chinese Hamster Ovary) cell line. Cells were maintained with standard tissue culture procedures and stable channel expression was maintained with 500 μg/mL G418 in the culture medium. Cells were harvested for testing on the PatchXpress 7000A automated patch clamp with Accumax (Innovative Cell Technologies, San Diego, Calif.) to isolate single cells.
The following solutions were used for electrophysiological recordings. The external solution contained: 2 mM CaCl2; 2 mM MgCl2; 4 mM KCl; 150 mM NaCl; 10 mM Glucose; 10 mM HEPES (pH 7.4 with 1M NaOH; osmolarity, ˜310 mOsm).
hERG channels were activated when the voltage was first stepped to −50 mV for 300 ms from the −80 mV holding potential and then stepped to +20 mV for 5 seconds. At +20 mV the channels open and then largely inactivate, so the currents are relatively small. Upon returning to −50 mV from +20 mV, hERG currents transiently become much larger as inactivation is rapidly removed and then the channel closes. The first step to −50 mV for 300 ms was used as a baseline for measuring the peak amplitude during the step to −50 mV after channel activation. The peak tail current at −50 mV was measured both under control conditions and after addition of compound, each cell serving as its own control.
All compounds were prepared as 10 mM DMSO stocks in glass vials. Stock solutions were mixed by vigorous vortexing and sonication for about 2 minutes at room temperature. For testing, compounds were diluted in glass vials using an intermediate dilution step in pure DMSO and then further diluted to working concentrations in external solution. Dilutions were prepared no longer than 20 minutes before use.
For the electrophysiological recordings, after achieving the whole-cell configuration, cells were monitored for 90 seconds to assess stability and washed with external solution for 66 seconds. The voltage protocol described above was then applied to the cells every 12 seconds and throughout the whole procedure. Only cells with stable recording parameters and meeting specified health criteria were allowed to enter the compound addition procedure.
External solution containing 0.1% DMSO (vehicle) was applied to the cells first to establish the control peak current amplitude. After allowing the current to stabilize for 3 to 5 minutes, 1 μM and then 10 μM test compounds were applied. Each compound concentration was added 4 times and cells were kept in test solution until the effect of the compound reached steady state or for a maximum of 12 minutes. […] Washout in the external solution compartment was performed until the recovery of the current reached steady state.

[2] = target: T2, hNav 1.2 sodium channel isoform (Homo sapiens, UniProt Q99250); test: hNav1.2 whole-cell voltage-clamp assay; conditions: use-dependent block, 10 Hz, read-out: NAV1.2* UDB-10HZ
T2 construct: expressed in transfected cells
Protocol: Wild-type (WT) cDNA stably transfected in Chinese hamster ovary (CHO) cells is used to record INa. Unless otherwise noted, all reagents are purchased from Sigma-Aldrich (St Louis, Mo., U.S.A.).
Whole-cell voltage-clamp recordings are used to measure the biophysical properties of WT. […] Cells are allowed to stabilize for 10 min after establishment of the whole-cell configuration before current is measured. Series resistance is compensated 90% to assure that the command potential is reached within microseconds with a voltage error<2 mV. Leak currents are subtracted by using an online P/4 procedure and all currents are low-pass Bessel filtered at 5 kHz and digitized at 50 kHz.
For clarity, representative ramp currents are low pass filtered off-line at 50 Hz. Specific voltage-clamp protocols assessing channel activation, fast inactivation and availability during repetitive stimulation are used. Results are presented as mean±SEM.
Tonic block of peak current is measured using a step to −10 mV (20 ms) from a holding potential of −120 mV (0.2 Hz). Use-dependent block of peak current is measured during pulse number 300 of a pulse train (−10 mV, 5 ms, 300 pulses, 10 Hz or 25 Hz) from a holding potential of −120 mV. Two sequential pulse train stimulations are averaged to obtain mean current traces for each recording condition, which are then used for offline subtraction and analysis.
For use-dependent studies, cells are stimulated with depolarizing pulse trains (−10 mV, 5 ms, 300 pulses, 10 and 25 Hz) from a holding potential of −120 mV. Currents are then normalized to the peak current recorded in response to the first pulse in each frequency train. For tonic block studies, peak current is evaluated in response to a 20 ms depolarization to −10 mV (0.2 Hz). […] Results are presented as mean±SEM.
A stock solution of 10 mM compound of Formula I is prepared in 0.1 M HCl or DMSO. […] The final DMSO concentration was kept at 0.1% in all solutions. Direct application of the perfusion solution to the clamped cell is achieved using the Perfusion Pencil system (Automate, Berkeley, Calif.). Direct cell perfusion is driven by gravity at a flow rate of 350 μL/min using a 250 micron tip. This system sequesters the clamped cell within a perfusion stream and enables complete solution exchange within 1 second. The clamped cell is perfused continuously starting immediately after establishing the whole-cell configuration. Control currents are measured during control solution perfusion.
Solutions are perfused for three minutes prior to current recordings to allow equilibrium (tonic) drug block. Tonic block of peak currents is measured from this steady-state condition. Three sequential current traces are averaged to obtain a mean current for each recording. The mean current traces are utilized for offline analysis. Use-dependent block of peak current is measured during pulse number 300 of the pulse train, (−10 mV, 5 ms, 300 pulses, 10 Hz) from a holding potential of −120 mV.

T2 sequence (Q99250 whole entry, canonical isoform): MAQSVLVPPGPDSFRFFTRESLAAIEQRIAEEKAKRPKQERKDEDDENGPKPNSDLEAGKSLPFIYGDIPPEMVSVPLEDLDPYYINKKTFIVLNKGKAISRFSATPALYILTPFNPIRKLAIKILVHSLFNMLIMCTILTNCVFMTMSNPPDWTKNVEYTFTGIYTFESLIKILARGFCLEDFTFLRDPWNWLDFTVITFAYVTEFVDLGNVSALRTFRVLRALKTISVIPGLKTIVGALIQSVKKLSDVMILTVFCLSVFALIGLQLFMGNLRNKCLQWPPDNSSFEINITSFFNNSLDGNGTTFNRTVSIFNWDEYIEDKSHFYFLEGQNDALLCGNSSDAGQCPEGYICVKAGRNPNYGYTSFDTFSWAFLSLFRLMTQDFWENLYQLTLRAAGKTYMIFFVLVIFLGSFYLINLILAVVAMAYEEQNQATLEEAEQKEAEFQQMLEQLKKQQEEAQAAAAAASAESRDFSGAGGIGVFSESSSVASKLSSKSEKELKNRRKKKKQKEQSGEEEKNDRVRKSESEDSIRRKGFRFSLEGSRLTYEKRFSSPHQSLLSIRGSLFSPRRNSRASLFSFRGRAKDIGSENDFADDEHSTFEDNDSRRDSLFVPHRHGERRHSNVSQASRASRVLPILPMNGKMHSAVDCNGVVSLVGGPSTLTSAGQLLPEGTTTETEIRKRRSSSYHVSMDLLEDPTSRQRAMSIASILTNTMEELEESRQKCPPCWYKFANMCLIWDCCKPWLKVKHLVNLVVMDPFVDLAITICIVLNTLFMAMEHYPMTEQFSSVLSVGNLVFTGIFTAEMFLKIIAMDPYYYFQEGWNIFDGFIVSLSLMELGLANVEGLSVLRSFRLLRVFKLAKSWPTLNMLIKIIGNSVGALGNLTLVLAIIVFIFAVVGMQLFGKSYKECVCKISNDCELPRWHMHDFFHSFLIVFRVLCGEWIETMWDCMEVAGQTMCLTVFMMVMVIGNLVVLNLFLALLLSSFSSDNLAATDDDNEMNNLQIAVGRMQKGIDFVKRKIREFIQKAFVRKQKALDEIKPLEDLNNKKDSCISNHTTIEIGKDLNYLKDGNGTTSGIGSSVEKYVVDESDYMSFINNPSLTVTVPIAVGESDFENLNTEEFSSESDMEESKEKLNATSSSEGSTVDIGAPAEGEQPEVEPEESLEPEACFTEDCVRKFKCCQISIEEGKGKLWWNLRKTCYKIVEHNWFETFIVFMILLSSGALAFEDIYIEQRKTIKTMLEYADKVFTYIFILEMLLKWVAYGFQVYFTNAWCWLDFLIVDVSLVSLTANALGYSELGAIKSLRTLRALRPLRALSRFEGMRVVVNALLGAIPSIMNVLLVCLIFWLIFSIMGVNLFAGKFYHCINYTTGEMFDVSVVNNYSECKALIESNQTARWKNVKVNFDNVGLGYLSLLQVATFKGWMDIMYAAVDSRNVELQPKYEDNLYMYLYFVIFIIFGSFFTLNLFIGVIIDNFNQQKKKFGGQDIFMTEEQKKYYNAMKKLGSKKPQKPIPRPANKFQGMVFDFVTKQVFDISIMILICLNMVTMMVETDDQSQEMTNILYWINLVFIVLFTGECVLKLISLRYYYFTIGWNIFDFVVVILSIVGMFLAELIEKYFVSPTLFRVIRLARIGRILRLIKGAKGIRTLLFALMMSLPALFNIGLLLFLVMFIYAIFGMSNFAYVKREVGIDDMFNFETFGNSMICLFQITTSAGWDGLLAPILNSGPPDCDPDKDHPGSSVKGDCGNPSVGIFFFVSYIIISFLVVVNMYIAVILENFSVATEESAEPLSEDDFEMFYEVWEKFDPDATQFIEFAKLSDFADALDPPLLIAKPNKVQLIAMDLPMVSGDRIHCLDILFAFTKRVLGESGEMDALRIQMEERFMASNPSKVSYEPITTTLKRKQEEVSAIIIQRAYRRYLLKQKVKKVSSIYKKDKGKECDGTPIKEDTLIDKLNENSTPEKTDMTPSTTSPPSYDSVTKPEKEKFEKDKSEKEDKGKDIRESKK
Chain of hERG potassium channel (Q12809 whole entry): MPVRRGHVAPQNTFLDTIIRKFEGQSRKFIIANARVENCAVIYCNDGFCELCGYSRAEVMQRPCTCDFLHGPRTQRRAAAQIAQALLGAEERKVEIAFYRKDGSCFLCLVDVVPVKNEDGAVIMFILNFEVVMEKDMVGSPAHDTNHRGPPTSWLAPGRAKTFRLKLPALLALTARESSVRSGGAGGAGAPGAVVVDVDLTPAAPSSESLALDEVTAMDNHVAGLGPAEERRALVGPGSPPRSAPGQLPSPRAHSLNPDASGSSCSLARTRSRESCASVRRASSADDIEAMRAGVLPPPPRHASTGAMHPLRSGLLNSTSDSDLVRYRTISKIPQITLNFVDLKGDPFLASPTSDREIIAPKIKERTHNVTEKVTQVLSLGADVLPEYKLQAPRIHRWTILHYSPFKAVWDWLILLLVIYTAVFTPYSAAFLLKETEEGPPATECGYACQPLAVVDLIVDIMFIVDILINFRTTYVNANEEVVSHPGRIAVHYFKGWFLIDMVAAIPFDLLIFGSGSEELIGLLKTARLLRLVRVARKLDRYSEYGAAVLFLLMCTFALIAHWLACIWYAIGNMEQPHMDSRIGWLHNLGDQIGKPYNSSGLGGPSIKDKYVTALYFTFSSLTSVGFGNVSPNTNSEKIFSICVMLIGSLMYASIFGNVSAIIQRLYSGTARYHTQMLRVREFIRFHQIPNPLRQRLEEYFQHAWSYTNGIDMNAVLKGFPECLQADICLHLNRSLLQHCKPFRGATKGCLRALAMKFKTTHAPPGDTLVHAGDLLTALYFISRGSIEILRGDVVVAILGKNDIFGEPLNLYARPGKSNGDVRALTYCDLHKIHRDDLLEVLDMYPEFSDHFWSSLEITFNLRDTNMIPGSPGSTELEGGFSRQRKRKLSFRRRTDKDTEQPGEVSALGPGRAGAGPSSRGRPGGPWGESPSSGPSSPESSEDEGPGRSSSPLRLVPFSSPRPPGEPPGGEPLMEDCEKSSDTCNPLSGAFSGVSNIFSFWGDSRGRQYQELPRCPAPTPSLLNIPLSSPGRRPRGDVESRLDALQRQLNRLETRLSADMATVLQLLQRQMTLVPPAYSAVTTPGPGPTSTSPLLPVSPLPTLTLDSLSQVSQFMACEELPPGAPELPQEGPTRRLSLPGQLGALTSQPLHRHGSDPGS

SMILES: O=C1CN(Cc2ccccc2)C(=O)c2cc(-c3ccc(C(F)(F)F)cc3)ccc2N1 [Compound X-8, 4-benzyl-7-(4-(trifluoromethyl)phenyl)-3,4-dihydro-1H-benzo[e][1,4]diazepine-2,5-dione]
- inhibition at 1 µM [1]: -12%
- hERG (hERG potassium channel): <10
- inhibition at 1 µM [2]: -14%

SMILES: O=C1c2cc(-c3ccc(C(F)(F)F)cc3)ccc2OC[C@H]2CN(CC(F)F)CCN12 [II-22, (R)-2-(2,2-difluoroethyl)-8-(4-(trifluoromethyl)phenyl)-3,4,12,12a-tetrahydro-1H-benzo[f]pyrazino[2,1-c][1,4]oxazepin-6(2H)-one]
- inhibition at 1 µM [1]: 3%
- hERG (hERG potassium channel): 16
- inhibition at 1 µM [2]: 15%

SMILES: O=C1c2cc(-c3ccc(OC(F)(F)F)cc3)ccc2OCCN1Cc1ncccn1 [II-73, 4-(pyrimidin-2-ylmethyl)-7-(4-(trifluoromethoxy)phenyl)-3,4-dihydrobenzo[f][1,4]oxazepin-5(2H)-one]
- IC50 ([1]; frequency of 10 Hz, read-out: IC50 block of hNav 1.1 peak INa): > 100 µM
- IC50 ([1]; frequency of 25 Hz, read-out: IC50 block of hNav 1.1): 3.4 µM
- inhibition at 1 µM [2]: 19%

SMILES: O=C1c2cc(-c3ccc(C(F)(F)F)cc3)ccc2OC[C@H]2CN(CC(F)(F)F)CCN12 [II-83, (R)-2-(2,2,2-trifluoroethyl)-8-(4-(trifluoromethyl)phenyl)-3,4,12,12a-tetrahydro-1H-benzo[f]pyrazino[2,1-c][1,4]oxazepin-6(2H)-one]
- inhibition at 1 µM [1]: -2%
- hERG (hERG potassium channel): 21
- inhibition at 1 µM [2]: 10%

SMILES: O=C1c2cc(-c3ccc(Cl)cc3)ccc2OCCN1Cc1ncccn1 [II-88, 7-(4-chlorophenyl)-4-(pyrimidin-2-ylmethyl)-3,4-dihydrobenzo[f][1,4]oxazepin-5(2H)-one]
- inhibition at 1 µM [1]: -10%
- hERG (hERG potassium channel): 26
- inhibition at 1 µM [2]: -1%

SMILES: CC(C)(C)c1ccc(-c2ccc3c(c2)C(=O)N(Cc2ncccn2)CCO3)cc1 [II-98, 7-(4-tert-butylphenyl)-4-(pyrimidin-2-ylmethyl)-3,4-dihydrobenzo[f][1,4]oxazepin-5(2H)-one]
- inhibition at 1 µM [1]: -1%
- hERG (hERG potassium channel): <10
- inhibition at 1 µM [2]: -8%

SMILES: O=C1c2cc(-c3ccc(C(F)(F)F)cc3F)ccc2OCCN1Cc1ncccn1 [II-105, 7-(2-fluoro-4-(trifluoromethyl)phenyl)-4-(pyrimidin-2-ylmethyl)-3,4-dihydrobenzo[f][1,4]oxazepin-5(2H)-one]
- inhibition at 1 µM [1]: -17%
- hERG (hERG potassium channel): <10
- inhibited (or reduced) the activity of the hERG potassium channel (hERG potassium channel; at 1 μM): < 10%
- inhibition at 1 µM [2]: 1%

SMILES: O=C1c2cc(-c3ccc(C(F)(F)F)cc3Cl)ccc2OCCN1Cc1ncccn1 [II-110, 7-(2-chloro-4-(trifluoromethyl)phenyl)-4-(pyrimidin-2-ylmethyl)-3,4-dihydrobenzo[f][1,4]oxazepin-5(2H)-one]
- inhibition at 1 µM [1]: -4%
- hERG (hERG potassium channel): 26
- inhibition at 1 µM [2]: -2%

SMILES: O=C1c2cc(-c3ccc(Cl)cc3F)ccc2OCCN1Cc1ncccn1 [II-117, 7-(4-chloro-2-fluorophenyl)-4-(pyrimidin-2-ylmethyl)-3,4-dihydrobenzo[f][1,4]oxazepin-5(2H)-one]
- inhibition at 1 µM [1]: -11%
- hERG (hERG potassium channel): <10
- inhibition at 1 µM [2]: -18%

SMILES: O=C1c2cc(-c3ccc(C(F)(F)F)cc3)ccc2OCCN1Cc1cn2ccccc2n1 [II-129, 4-(imidazo[1,2-a]pyridin-2-ylmethyl)-7-(4-(trifluoromethyl)phenyl)-3,4-dihydrobenzo[f][1,4]oxazepin-5(2H)-one]
- inhibition at 1 µM [1]: 8%
- hERG (hERG potassium channel): 17
- inhibition at 1 µM [2]: 7%

SMILES: O=C(c1ncccn1)N1CCOc2ccc(-c3ccc(OC(F)(F)F)cc3)cc2C1 [III-1, pyrimidin-2-yl(7-(4-(trifluoromethoxy)phenyl)-2,3-dihydrobenzo[f][1,4]oxazepin-4(5H)-yl)methanone]
- inhibition at 1 µM [1]: -1%
- hERG (hERG potassium channel): <10
- inhibition at 1 µM [2]: -3%

SMILES: O=C1c2cc(C#Cc3ccc(OC(F)(F)F)cc3)ccc2OCCN1Cc1ncccn1 [VIII-4, 4-(pyrimidin-2-ylmethyl)-7-((4-(trifluoromethoxy)phenyl)ethynyl)-3,4-dihydrobenzo[f][1,4]oxazepin-5(2H)-one]
- inhibition at 1 µM [1]: 5%
- hERG (hERG potassium channel): 30
- inhibition at 1 µM [2]: 18%

SMILES: O=C1c2cc(C#Cc3ccc(C(F)(F)F)cc3)ccc2OCCN1Cc1ncccn1 [VIII-6, 4-(pyrimidin-2-ylmethyl)-7-((4-(trifluoromethyl)phenyl)ethynyl)-3,4-dihydrobenzo[f][1,4]oxazepin-5(2H)-one]
- inhibition at 1 µM [1]: 6%
- hERG (hERG potassium channel): <10
- inhibition at 1 µM [2]: 20%
